In the supplement of paper PMC10307832:

Assays:
Assay in all cases: relative viability (nuclei count vs DMSO), 5 days (fraction); higher = more cells survive
Entinostat + Bortezomib = compound: Nc1ccccc1NC(=O)c1ccc(CNC(=O)OCc2cccnc2)cc1 [Entinostat] + CC(C)C[C@H](NC(=O)[C@H](Cc1ccccc1)NC(=O)c1cnccn1)B(O)O [Bortezomib] (partner 0.002 µM)
Procedure, shortened: (§1)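 Medians of duplicate plates are given as relative viability. That measure is the nuclei count in treated wells divided by the count in vehicle wells. Counts were taken on 4× images of lung cancer cell lines in 1536-well plates, 5 days after pin-tool dosing the day after seeding with one drug alone or a fixed anchor-drug dose plus five library-drug doses (not always all listed) in √10 steps.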

SGI-1776 + Alpelisib = compound: CN1CCC(CNc2ccc3ncc(-c4cccc(OC(F)(F)F)c4)n3n2)CC1 [SGI-1776] + Cc1nc(NC(=O)N2CCC[C@H]2C(N)=O)sc1-c1ccnc(C(C)(C)C(F)(F)F)c1 [Alpelisib] (partner 2 µM)
Procedure, shortened: as §1

[1] = compound: C1COCCN1C2=NC(=NC3=C2OC4=C3C=CC=N4)C5=CC(=CC=C5)NC(=O)C6=CN=C(C=C6)N + C[C@]1(O)C[C@@H](c2nc(-c3ccc4ccc(-c5ccccc5)nc4c3)c3c(N)nccn32)C1 [Linsitinib] (partner 1 µM)
Procedure, shortened: as §1

[2] = compound: C1COCCN1C2=NC(=NC3=C2OC4=C3C=CC=N4)C5=CC(=CC=C5)NC(=O)C6=CN=C(C=C6)N + CS(=O)(=O)N1CCN(Cc2cc3nc(-c4cccc5[nH]ncc45)nc(N4CCOCC4)c3s2)CC1 [Pictilisib] (partner 1 µM)
Procedure, shortened: as §1

UMC-11 gave a relative viability (Entinostat + Bortezomib; first compound 0.02 µM) of 0.557, a relative viability (Entinostat + Bortezomib; first compound 0.06325 µM) of 0.708 and a relative viability (Entinostat + Bortezomib; first compound 0.2 µM) of 0.827. The relative viability (Entinostat + Bortezomib; first compound 0.6325 µM) was 0.217, the relative viability (Entinostat + Bortezomib; first compound 2 µM) was 0.111 and the relative viability (SGI-1776 + Alpelisib; first compound 0.08 µM) was 0.888. For the same cell line, the relative viability (SGI-1776 + Alpelisib; first compound 0.8 µM) was 1, the relative viability (SGI-1776 + Alpelisib; first compound 2.53 µM) was 0.828 and the relative viability (SGI-1776 + Alpelisib; first compound 8 µM) was 0.671. It also gave a relative viability ([1]; first compound 0.02 µM) of 0.966, a relative viability ([1]; first compound 0.06325 µM) of 1.04 and a relative viability ([1]; first compound 0.2 µM) of 1.11. The relative viability ([1]; first compound 0.6325 µM) was 1.34, the relative viability ([1]; first compound 2 µM) was 0.666 and the relative viability ([2]; first compound 0.02 µM) was 0.837. The relative viability ([2]; first compound 0.06325 µM) was 0.875, the relative viability ([2]; first compound 0.2 µM) was 0.791 and the relative viability ([2]; first compound 0.6325 µM) was 0.776. For the same cell line, the relative viability ([2]; first compound 2 µM) was 0.598.
